In patent publication US8193175B2, “Ruthenium complexes for treating cancers” (Universite de Strasbourg, priority 2004, dated 2012):

What was measured:
[1] = system: 2008/CMV and 2008/ATP7B cells; test: MTT test on 2008/CMV and 2008/ATP7B cells; format: cell-based; conditions: 48 hrs
Procedure: (§1) FIG. 6: The 2008/CMV and 2008/ATP7B cells (contributed by Dr. Howell) were cultivated in plates with 96 wells in DMEM medium with 10% calf serum. At 30% confluence, the cells were treated for 48 hrs with cisplatinum or the various compounds derived from ruthenium in the concentrations indicated (1, 5, 15, 50 μM). The quantity of cells present in the wells was evaluated by an MTT (MTT, Sigma) test. The results obtained were related to the values of the control condition (100% viability). The graphs show an average of 8 points with the typical spacings over one experiment representative of 3 carried out. The thick black line indicates the IC50 for each graph.
One of these mechanisms is the overexpression of the copper export pump (ATP7B) which expels cisplatinum from the cell. It has been shown that this molecule is overexpressed in human tumours and that cell lines which overexpress this molecule are more resistant to cisplatinum and carboplatinum than control lines.
Two cell lines derived from 2008 cells (Katano, Safaei et al. 2003) were studied. One overexpresses the ATP7B pump, and the other only contains the control vector. The cytostatic activity of the cisplatinum and the CDR was tested in these two lines using the MTT test.

A172 cells [2] = test: MTT test on A172 cells, combination with NCS or Taxol; format: cell-based, human; conditions: concentration bringing about 10% of the maximum effect; 48 hrs
Procedure: FIG. 7: The A172 cells were cultivated in plates with 96 wells in DMEM medium with 10% calf serum. At 30% confluence, the cells were treated for 48 hrs with cisplatinum, CDR6, NCS (Neocarzinostatin), Taxol or a combination of these drugs in the concentrations indicated. The quantity of cells present in the wells was evaluated by an MTT (MTT, Sigma) test, the reaction products of which are quantified with an Elisa plate reader (Metertech, USA) (490-650 nm). […] The graphs show an average of 8 points with the typical spacings over one experiment representative of 4 carried out. The thick black line indicates the IC50 for each graph.
The mechanisms induced by various anticancer drugs are different according to the mode of action of these drugs. […] NCS induces DNA double strand breaks, similar to those of gamma rays (Smith and Nicolaou 1996). Taxol disrupts the mitotic spindles (Oberlies and Kroll 2004).
A comparison was made using two doses of NCS and two doses of Taxol. The one enables one to expect the IC50, the other leads to a reduction by 10% of the cell viability after 48 hrs treatment. These two concentrations were combined with a concentration of ruthenium derivative or cisplatinum bringing about 10% of the maximum effect.

A172 glioblastoma cells = test: Nucleus morphology and caspase 3 activation in A172 cells; format: cell-based, human
Text: FIG. 2: A—The A172 cells were cultivated on glass slides. […] The cells were then fixed in 4% paraformaldehyde, permeabilised with 0.1% NP40 and marked with Hoechst dye (blue) and the anti-p20 antibody (active fragment of caspase 3, in red). The cells were then observed under the fluorescence microscope. B—Graphic representation of the number of cells with an apoptotic, fragmented or condensed nucleus. The bars are an average of two slides from one experiment representative of 3 carried out. C—In parallel, proteic extracts were prepared from cells treated with various drugs (cisplatinum 15 μM; CDR225 μM; CDR615 μM; CDR915 μM) and following denaturation the extracts were deposited on a !0% SDS-Page gel. After migration, the proteins were transferred onto nitrocellulose (Biorad, 0.2 μm) and the p20 fragment of the caspase 3 was detected by Western blot with an anti-p20 antibody (1/1000, R&D System).
(§2) The first step towards characterising the anticancerous effects of the compounds derived from ruthenium consists of testing their activity on tumoral lines kept in culture and comparing these effects on lines which have different characteristics as regards resistance to the anticancer treatments. Two lines of human glioblastomas (A172, HS683) and two lines of neuroblastomas (N2A and SH5Y) were used in order to test the cytostatic effects of the compounds according to the invention. Cisplatinum was chosen as the cytotoxic comparison agent. In a first approach, an MTT test was used to measure the activity of a mitochondrial enzyme, and this gives an estimate of the number of cells. Then, the cytotoxic effects of the compounds according to the invention were characterised in greater detail by analysing the morphology of the nucleus and the activation of caspase 3—two markers of cell apoptosis.

A172 cells [3] = test: Western blot of p53, p73, p21 and Bax in A172 cells; format: cell-based, human
Procedure: FIG. 3: Detection of p53 and p73 in A172 cells treated with CDR. The A172 cells were treated with the concentrations indicated (2, 5 or 10 μM) with the various compounds and for the periods of time indicated (24 hrs or 6 hrs). The proteins were extracted with a lysis buffer and were separated on 10% SDS-Page gel. After being transferred onto nitrocellulose, the p53 and p73 proteins were detected by Western blot using anti-p53 (pAb1801) and anti-p73 (1/200, Ab2, Oncogene) antibody.
FIG. 4: Detection of p21 and Bax in A172 cells treated with CDR. The A172 cells were treated with the various compounds (10 μM) for 24 hrs. The proteins were extracted with a lysis buffer and were separated on 10% SDS-Page gel. After being transferred onto nitrocellulose, the p21 and Bax proteins were detected by Western blot using anti-p21 (1/200, Oncogene) and anti-Bax (1/2000, Santacruz) antibody.
(§3) For the purpose of determining the molecular mechanisms used by the ruthenium derivatives and comparing them with those induced by cisplatinum, the expression of p53, p73 p21 and bax in the A172 and HCT116 lines was analysed.

HCT116 cells = test: Western blot of p53, p21 and phospho-histone H3 in HCT116 cells; format: cell-based, human; conditions: 10 μM
Procedure: FIG. 5: Detection of p53, p21 and of the phosphorylation of histone H3 in the HCT116 cells treated with CDR. The HCT116 cells were treated with the various compounds (10 μM) and for the periods of time indicated (24 hrs or 6 hrs). The proteins were extracted with a lysis buffer and were separated on 10% SDS-Page gel. After being transferred onto nitrocellulose, the p53, p21 proteins and histone H3 were detected by Western blot using anti-p53 (pAb1801), anti-p21 (1/200, Oncogene) antibody and anti-phospho serine 10 of histone H3 (1/2000, Santacruz).
as §3

[4] = system: A172, HS683, N2A, and SH5Y; test: MTT test on glioblastoma and neuroblastoma lines; format: cell-based, human; conditions: 48 hrs treatment; compared with cisplatinum
Procedure: as §1, with “FIG. 1:” for “FIG. 6:”, “The A172” for “The 2008/CMV and 2008/ATP7B”, “cells” for “cells (contributed by Dr. Howell)”, “cultivated on” for “cultivated in”, “Sigma) test of which the products of the reaction are quantified with an Elisa plate reader (Metertech, USA) (490-650 nm).” for “Sigma) test.”, “of 4” for “of 3”
TABLE 2: a summary of the results obtained on various cell lines and primary glial cultures. The experiments were carried out under the same conditions as those described for the A172 cells. Each IC50 is an indicative value obtained over 4 independent experiments.
as §2

In the case of `CN(C)Cc1cccc[c]1[Ru+].CP(C)c1ccccc1.F[P-](F)(F)(F)(F)F.c1ccccc1` [Compound 6, [Ru (η^6-C6H6)-2-(CH2NMe2)—C6H4—(PMe2Ph)]PF6], the “sensitivity of the line expressing ATP7B relative to the control line (MTT)” value [1] is reported as “equivalent to that of the control line”, the “effectiveness of co-treatment with NCS or Taxol” value (A172 cells [2]) is reported as “significantly more effective in relation to a co-treatment with cisplatinum” and the “nuclear condensation and fragmentation” value (A172 glioblastoma cells; 48 hrs treatment) is reported as “induce nuclear condensation and fragmentation characteristic of apoptosis”. For the same compound, the “proteic levels of the active fragment of caspase 3 (Western blot)” value (A172 glioblastoma cells; cisplatinum 15 μM, CDR6 15 μM, CDR9 15 μM) was “increasing the proteic levels of the active fragment of caspase 3”, the “expression of p21 and Bax” value (A172 cells [3]; 10 μM, 24 hours treatment) was “induces the expression of p21 and Bax” and the p53 proteic levels (A172 cells [3]; 6 hrs treatment) was “induce p53”. The p53 proteic levels (A172 cells [3]; 24 hrs treatment) was “no effect”, the “increase in expression of p21 and inhibition of phosphorylation of histone H3” value (HCT116 cells) was “identical for CDR 6 and cisplatinum” and the “induction of p53” value (HCT116 cells; 6 hrs to 24 hrs) was “induction of p53”. The “reduction of the number of tumoral cells (MTT)” value [4] was “at a concentration similar to or lower than that of cisplatinum”.
